From article PMC10383864, “Novel 2-Sulfanylquinazolin-4(3H)-one Derivatives as Multi-Kinase Inhibitors and Apoptosis Inducers: A Synthesis, Biological Evaluation, and Molecular Docking Study” (Molecules, 2023)
Where two headings read alike, the source gives them in different places.

How the values were obtained:
[1] = MTT cytotoxicity assay, normal human cell line; type: cell-based; conditions: human, WI38 cells (normal human cells), 24 h treatment, mean ± SD of three experiments, read-out: In Vitro Cytotoxicity IC50 WI38
Description: (§1) In addition, the safety profile of the 2-sulfanylquinazolin-4(3H)-one derivatives was evaluated against normal human cells (WI38) […]. The standard MTT (3-(4,5-dimethylthiazol-2-yl)-2,5 diphenyl tetrazolium bromide) colorimetric assay protocol was used, as described by Mosmann. […] The results were expressed as growth inhibitory concentration (IC50) values.
(§2) The cell lines were obtained from ATCC (American Type Culture Collection). […] After incubation, the cells were treated with different concentrations of the synthesized compounds and incubated for 24 h. Afterward, the cells were washed with PBS, and 20 µL of MTT solution at 5 mg/mL was added, all incubated for 4 h. The MTT solution was discarded, and 100 µL of dimethyl sulfoxide (DMSO) was added per well. […] The relative cell viability in percentage was calculated as (A570 of treated cells/A570 of untreated cells) × 100.

[2] = system: HeLa cells; test: MTT cytotoxicity assay; type: cell-based, human; conditions: 24 h treatment, mean ± SD of three experiments, read-out: In Vitro Cytotoxicity IC50 HeLa
Description: as §1, §2

[3] = system: HepG2 cells; test: MTT cytotoxicity assay; type: cell-based, human; conditions: 24 h treatment, mean ± SD of three experiments, read-out: In Vitro Cytotoxicity IC50 HepG2
Description: as §1, §2

[4] = system: MCF-7 cells; test: MTT cytotoxicity assay; type: cell-based, human; conditions: MCF-7, MTT, 24 h treatment, mean ± SD of three experiments, read-out: In Vitro Cytotoxicity IC50 MCF-7
Description: as §1, §2

[5] = system: MDA-MB-231 cells; test: MTT cytotoxicity assay; type: cell-based, human; conditions: MDA-MB-231, MTT, 24 h treatment, mean ± SD of three experiments, read-out: In Vitro Cytotoxicity IC50 MDA-MB-231
Description: as §1, §2

[6] = system: WI38 cells; test: MTT cytotoxicity assay, normal human cell line; type: cell-based; conditions: 24 h treatment, mean ± SD of three experiments, read-out: In Vitro Cytotoxicity IC50 WI38
Description: as §1, §2

| melting point [°C] | SMILES | IC50 at 24 h [1] [µM] | IC50 ([2]; Homo sapiens, 24 h) [µM] | IC50 ([3]; Homo sapiens, HepG2, 24 h) [µM] | IC50 ([4]; Homo sapiens, MCF7, 24 h) [µM] | IC50 ([5]; Homo sapiens, MDA-MB-231, 24 h) [µM] | IC50 [6] [µM] | IC50 [2] [µM] | IC50 [3] [µM] | IC50 [4] [µM] | IC50 [5] [µM] |
| --- | --- | --- | --- | --- | --- | --- | --- | --- | --- | --- | --- |
| 166 to 168 | Cc1ccc(CSc2nc3ccc(F)cc3c(=O)n2-c2ccc(F)cc2)cc1 [Compound 5a, 3-(4-fluoro-Arenyl)-6-fluoro-2-(4-methyl-benzylsulfanyl)-3H-quinazolin-4-one] | 28.7 ± 2.2 | 83.2 ± 4.1 | > 100 | 86 ± 4.4 | 79.1 ± 4 | – | – | – | – | – |
| 158 to 160 | Cc1ccc(CSc2nc3ccc(F)cc3c(=O)n2-c2ccccc2)cc1 [Compound 5b, 6-Fluoro-2-(4-methyl-benzylsulfanyl)-3-Arenyl-3H-quinazolin-4-one] | > 100 | > 100 | 85 ± 4.6 | 91.2 ± 4.8 | 78.3 ± 3.9 | – | – | – | – | – |
| 156 to 158 | Cc1ccc(-n2c(SCc3ccccc3)nc3ccc(F)cc3c2=O)cc1 [Compound 5c, 2-Benzylsulfanyl-6-fluoro-3-(4-methyl-Arenyl)-3H-quinazolin-4-one] | – | – | – | – | – | 40.9 ± 2.6 | 31.2 ± 2.1 | 34.3 ± 2.4 | 51.9 ± 3.1 | 26.9 ± 1.9 |
